Test system: mouse vas deferens (MVD) preparations
Assay: Agonist potency in mouse vas deferens (MVD)
Type: biochemical
Conditions: arithmetic means of at least three experiments, read-out: IC50 (nM) ± SEM, MVD (Agonist Potencies of Parent Compounds)

Q: For `CN(C(=O)Cc1ccc(Cl)c(Cl)c1)C(CN1CCCC1)c1ccc([N+](=O)[O-])cc1` (racemic) [Compound 23, 2-(3,4-Dichlorophenyl)-N-methyl-N-[(1R,S)-1-(4-nitrophenyl)-2-(1-pyrrolidinyl)ethyl]acetamide], which IC50 is on record?
A: Its IC50 is 197 ± 61 nM.

From patent publication US5804595A, “Kappa opioid receptor agonists” (Regents of the University of Minnesota, priority 1995, dated 1998)
